Data taken from US20240384233A1, “Method for Producing Cardiomyocytes by Means of Reprogramming” (Plastech Pharmaceutical Technology Co., Ltd., priority 2020, published 2024).

Experiments:
[1] = test system: neonatal mouse skin fibroblasts (NSF) and mouse cardiac fibroblasts (nCFs); experiment: Substitute for 2C: small molecules of the same signaling pathway (beating cells in GMT NSF, cTnT positive cells in MT nCF); type: cell-based; conditions: GMT NSF D18 beating, MT nCF four weeks cTnT; for replacement of Baricitinib (beating cells, number of cTnT-positive cells): combined with SB431542; for replacement of SB431542 (beating cells, number of cTnT-positive cells): combined with Baricitinib
Method: Specifically, at D-2 (day-2), Myh6-mCherry neonatal mouse skin fibroblasts (NSF) were plated; at D-1 (day-1),the cells were infected with three lentiviruses expressing Gata4, Mef2c and Tbx5 (GMT), respectively; at D0 (day 0), the media were replaced with reprogramming media added with small molecules, and replaced every 3-4 days; andat D18, beating cells were counted. In addition, at D-2, WT mouse cardiac fibroblasts (nCFs) were plated, and residual cardiomyocytes were removed with CD90.2 MACS; at D-1, the cells were infected with virus expressing Mef2c+Tbx5 (MT); at D0, the media were replaced with reprogramming media added with small molecules, and replaced every 3 days; and after four weeks, cTnT positive cells were counted.2C was used as a positive control.
SB431542 is an inhibitor of TGFβ signaling pathway, and this example analyzed whether other small molecules of this signaling pathway could be combined with Baricitinib, including RepSox, GW788388, SD-208, LY364947, Y-27632, LDN-193189, LY2109761 and Galunisertib. Baricitinib is an inhibitor of Jak pathway, and this example analyzed whether other small molecules of this signaling pathway could be combined with SB431542, including Filgotinib, WP1066, Gandotinib, Ruxolitinib and AZD1480. […] It can be seen that the TGFβ signaling pathway is important for reprogramming into cardiomyocytes; however, at the same time, Baricitinib cannot be replaced by most other compounds targeting Jak-Stat.

[2] = test system: Myh6-mCherry neonatal mouse skin fibroblasts (NSF); experiment: GMT-mediated reprogramming of Myh6-mCherry neonatal mouse skin fibroblasts into induced cardiomyocyte like cells (iCM); type: cell-based; conditions: for optimal action concentration: cTnT staining, titrated on 2 μM of the other small molecule of 2C
Method: Reprogramming steps: at d-2, plating cells; at d-1, infecting with virus; andat d0, removing virus-containing medium, and replacing with reprogramming medium. Beating cell count and immunofluorescence assay were performed after approximately 3 weeks.
iCM reprogramming medium: DMEM/M199 (4:1) supplemented with 10% KnockOut serum replacement (KSR), 10% FBS, 1% GlutaMAX, 1% MEM NEAA, 1% Pen Strep, 2 μg/ml Dox and small molecule mixture 2C (2 μM SB431542, 2 μM Baricitinib).
At D-2, 24-well plate was coated with 0.1% gelatin and then placed in a cell culture incubator at 37° C. for 30 min, then the gelatin was aspirated, and the 24-well plate was inoculated with 80,000 cells per well. At D-1, MEF medium containing 6 ng/μl polybrene was replaced, the cells were infected with FU-tet-o-Gata4, FU-tet-o-Mef2c, FU-tet-o-Tbx5, FUdeltaGW-rtTA, 200 μl unconcentrated virus per well per virus. At D0, the medium was replaced with iCM reprogramming medium, and replaced every 3-4 days.
Screening was performed on Myh6-mCherry neonatal mouse dermal fibroblasts. Small molecule library was screened simultaneously with transfection of three genes of GMT (Gata4, Mef2c and Tbx5) to quantify the effect of small molecules on reprogramming by observing the ratio and brightness of reporter genes, as shown in FIG. 1A. Specifically, at D-2 (day-2), Myh6-mCherry neonatal mouse skin fibroblasts (NSF) were plated; at D-1 (day-1), the cells were infected with three lentiviruses expressing Gata4, Mef2c and Tbx5 (GMT), respectively; and at D0 (day 0), the media were replaced with reprogramming media added with small molecules, and replaced every 3-4 days. After three weeks of induction, the number of Myh6-mCherry positive cells was observed and counted to screen for small molecules that promoted the induced cardiomyocyte like cells (iCM).
The optimal action concentration and optimal action time of 2C were then further investigated. […] First, the optimal action concentration of SB431542 was determined by cardiomyocyte marker cTnT staining after adding different concentrations of SB431542 based on 2 μM Baricitinib. […]

[3] = test system: WT mouse cardiac fibroblasts (nCFs); experiment: Replacement of Baricitinib in combination with SB431542 on the basis of MT transduction; type: cell-based; conditions: three weeks
Excerpt: In addition, some small anti-inflammatory molecules have been reported to increase reprogramming-induced cardiomyocyte efficiency, such as Dexamethasone or Nabumetone.

[4] = test system: neonatal mouse fibroblasts; experiment: Tyk2 small molecule inhibitors: reprogramming of neonatal mouse fibroblasts into cardiomyocytes (MT+SB431542); type: cell-based; conditions: for beating cardiomyocytes: 2 uM SB431542; for cTnI and a-actinin positive cells: 2 uM SB431542, Tyk2 inhibitor 1, 2, 5 and 10 uM
Method: Neonatal suckling mice within 24 h were ordered from Vital River. In an ultraclean bench, heart tissue was taken, cut with sterilized surgical instruments, added with an appropriate amount of Type II Collagenase (1 mg/mL), digested at 37° C. constant temperature, after full digestion, washed twice with IMDM (20% FBS+1% PS+1% NEAA+1% Glu-Max) medium, resuspended with the medium, and plated in a 10 cm culture dish. After 24 h, fresh IMDM was added, and on the fourth day, CD90.2 (anti-Thy1+) was used for MACS separation. The sorted cells were plated in a 24-well plate 2-5×10^5/well), and infected with Fu-tet-o-Mef2c-T2A-Tbx5 virus and rtTA 24 h after plating. After 24 h, the medium was replaced with reprogramming medium, and replaced every 3 days. Beating cells could be seen at the 4th week, and a large number of cTnI and a-actinin could be seen by immunofluorescence staining.
10% FBS, 10% KSR, DMEM/M199 [4:1], 1% PS+1% NEAA+1% Glu-Max, 2 uM SB431542, Tyk2 inhibitor (BMS-986165 or PF-06826647), replaced every 3 days. Tyk2 inhibitor was used at 1, 2, 5 and 10 uM, and the optimal concentration is shown in the concentration gradient curve.

[5] = test system: neonatal mouse fibroblasts; experiment: Cardiomyocyte reprogramming with Tyk2 knockdown/knockout plus MT and C1; type: cell-based; conditions: combined with transcription factor MT and C1
Excerpt: (§1) Briefly, shRNAs targeting Tyk2 gene (shTyk2#1, shTyk2#2, shTyk2#3, shTyk2#4, shTyk2#5) were designed, introduced into neonatal mouse fibroblasts together with transcription factor combination MT, and then induced in reprogramming medium containing C1 to test the efficiency of reprogramming into cardiomyocyte-like cells.
To further confirm the role of specific inhibition of Tyk2 in cardiomyocyte reprogramming, the inventors further designed five different sgRNAs targeting Tyk2 gene, knocked out the Tyk2 gene of neonatal mouse fibroblasts using CRISPR technique, and tested the efficiency of cardiomyocyte reprogramming in the presence of transcription factor MT and C1, respectively. sgNT was a control for non-targeted Tyk2.

Tyk2 gene = experiment: Knockdown effect of shRNAs on Tyk2 expression; type: cell-based, mouse; conditions: FIG. 21C
Excerpt: as §1

Cc1cc(Nc2nc(N[C@@H](C)c3ncc(F)cn3)ncc2Cl)n[nH]1 [AZD1480]
replacement of Baricitinib (beating cells, number of cTnT-positive cells) [1]: only its structural analogue Ruxolitinib could be used for replacement

CCS(=O)(=O)N1CC(CC#N)(n2cc(-c3ncnc4[nH]ccc34)cn2)C1 [Baricitinib]
optimal action concentration [2]: 2 µM

O=C(Nc1nc2cccc(-c3ccc(CN4CCS(=O)(=O)CC4)cc3)n2n1)C1CC1 [Filgotinib]
replacement of Baricitinib (beating cells, number of cTnT-positive cells) [1]: only its structural analogue Ruxolitinib could be used for replacement

O=C(NC1CCOCC1)c1ccc(-c2cc(-c3c[nH]nc3-c3ccccn3)ccn2)cc1 [GW788388]
replacement of SB431542 (beating cells, number of cTnT-positive cells) [1]: could be effectively replaced by small molecules of the same signaling pathway

Cc1cccc(-c2nn3c(c2-c2ccnc4ccc(C(N)=O)cc24)CCC3)n1 [Galunisertib]
replacement of SB431542 (beating cells, number of cTnT-positive cells) [1]: could be effectively replaced by small molecules of the same signaling pathway

Cc1cc(Nc2cc(CN3CCOCC3)c3nc(C)c(Cc4ccc(Cl)cc4F)n3n2)n[nH]1 [Gandotinib]
replacement of Baricitinib (beating cells, number of cTnT-positive cells) [1]: only its structural analogue Ruxolitinib could be used for replacement

c1ccc2c(-c3cnn4cc(-c5ccc(N6CCNCC6)cc5)cnc34)ccnc2c1 [LDN-193189]
replacement of SB431542 (beating cells, number of cTnT-positive cells) [1]: could be effectively replaced by small molecules of the same signaling pathway

c1ccc(-c2[nH]ncc2-c2ccnc3ccccc23)nc1 [LY364947]
replacement of SB431542 (beating cells, number of cTnT-positive cells) [1]: could be effectively replaced by small molecules of the same signaling pathway

c1ccc(-c2nn3c(c2-c2ccnc4cc(OCCN5CCOCC5)ccc24)CCC3)nc1 [LY2109761]
replacement of SB431542 (beating cells, number of cTnT-positive cells) [1]: could be effectively replaced by small molecules of the same signaling pathway

COc1ccc2cc(CCC(C)=O)ccc2c1 [Nabumetone]
replacement of the effect of Baricitinib [3]: could not replace the effect of Baricitinib

Cn1cc(-c2cn3nccc3c(-c3cnn([C@]4(CC#N)C[C@@H](C#N)C4)c3)n2)cn1 [PF-06826647]
beating cardiomyocytes [4]: could induce beating cardiomyocytes from fibroblasts | cTnI and a-actinin positive cells [4]: could induce a number of cardiac specific markers cTnI and a-actinin positive cells from fibroblasts

Cc1cccc(-c2[nH]ncc2-c2ccc3ncccc3n2)n1 [RepSox]
replacement of SB431542 (beating cells, number of cTnT-positive cells) [1]: could be effectively replaced by small molecules of the same signaling pathway

NC(=O)c1ccc(-c2nc(-c3ccc4c(c3)OCO4)c(-c3ccccn3)[nH]2)cc1 [SB431542]
optimal action concentration [2]: 2 µM | efficiency of reprogramming induced cardiomyocytes (number of Myh6-mCherry positive cells) ([2]; three weeks of induction): increase the efficiency of reprogramming induced cardiomyocytes

Fc1ccc(Cl)cc1-c1nc(Nc2ccncc2)c2nccnc2n1 [SD-208]
replacement of SB431542 (beating cells, number of cTnT-positive cells) [1]: could be effectively replaced by small molecules of the same signaling pathway

C[C@H](NC(=O)/C(C#N)=C/c1cccc(Br)n1)c1ccccc1 [WP1066]
replacement of Baricitinib (beating cells, number of cTnT-positive cells) [1]: only its structural analogue Ruxolitinib could be used for replacement

C[C@@H](N)[C@H]1CC[C@H](C(=O)Nc2ccncc2)CC1 [Y-27632]
replacement of SB431542 (beating cells, number of cTnT-positive cells) [1]: could be effectively replaced by small molecules of the same signaling pathway

BMS-986165
beating cardiomyocytes [4]: could induce beating cardiomyocytes from fibroblasts | cTnI and a-actinin positive cells [4]: could induce a number of cardiac specific markers cTnI and a-actinin positive cells from fibroblasts

shTyk2#1: shRNA targeting Tyk2 gene, SEQ ID NO: 1 (CCCATCTTCATTAGCTGGGAACTCGAGTTCCCAGCTAATGAAGATGGG)
efficiency of cardiomyocyte reprogramming (cTnI and a-actinin immunofluorescence) [5]: could achieve similar efficiency of cardiomyocyte reprogramming as small molecule combination 2C | knockdown of Tyk2 expression (Tyk2 gene): could knockdown the expression of Tyk2

shTyk2#2: shRNA targeting Tyk2 gene, SEQ ID NO: 2 (CCCTTCATCAAGCTAAGTGATCTCGAGATCACTTAGCTTGATGAAGGG)
efficiency of cardiomyocyte reprogramming (cTnI and a-actinin immunofluorescence) [5]: could achieve similar efficiency of cardiomyocyte reprogramming as small molecule combination 2C | knockdown of Tyk2 expression (Tyk2 gene): could knockdown the expression of Tyk2

shTyk2#3: shRNA targeting Tyk2 gene, SEQ ID NO: 3 (CCACTTTAAGAATGAGAGCTTCTCGAGAAGCTCTCATTCTTAAAGTGG)
efficiency of cardiomyocyte reprogramming (cTnI and a-actinin immunofluorescence) [5]: could achieve similar efficiency of cardiomyocyte reprogramming as small molecule combination 2C | knockdown of Tyk2 expression (Tyk2 gene): could knockdown the expression of Tyk2
